Experimental data from patent publication US8227510B2, “Combine use of pterostilbene and quercetin for the production of cancer treatment medicaments” (Universitat de Valencia, priority 2004, dated 2012).
Marks after values point to notes of the source that are not given here.

Columns and labels:
B16M-F10 = test: Survival of mice carrying B16M-F10 metastases; assay type: in vivo; conditions: for Survival of the carrier: B16M-F10, 20 mg/kg i.v. daily, none 13 ± 2
Description: Hepatic metastases were induced by i.v. inoculations (portal vein), in anesthetized mice (Nembutal, 50 mg/kg i.p.), of 4×10^5 viable B16M-F10 cells suspended in 0.2 ml of DMEM. The mice were sacrificed by cervical dislocation 10 days after inoculation. The livers were fixed by immersion for 24 hours at 22° C. in 10% formaldehyde in PBS (pH 7.4), and were subsequently embedded in paraffin. The density of metastases (average number of foci/100 mm^3 of liver detected in fifteen sections of 10×10 mm^2 per liver) and the volume of metastases (average percentage of liver volume occupied by metastases) were determined as described previously (22).
This methodology makes it possible for the effect of PTER and QUER to be studied in vivo. For this purpose, mice were inoculated with B16M-F10 control cells or B16M-F10/Tet-Bcl-2 which overexpressed Bcl-2. Both subgroups of cells were cultivated beforehand in the absence or in the presence of t-PTER and QUER. B16M-F10 cells were cultivated for 72 hours. t-RESV (12 μM), t-PTER (40 μM), and QUER (20 μM) were added at 6, 30 and 54 hours of culture time, and were present in each case for just 60 minutes. Then they were removed from the culture flasks by washing (3 times with PBS) and the medium was renewed. The levels of Bcl-2 in the B16M-F10 control cells and cells treated with Tet-Bcl-2 were 24±5 and 105±14 units/mg of protein, respectively (n=5 in each case, P<0.01). The number of adhering cells shown in the table was calculated at 60 minutes postinjection (no significant differences were found when the measurements were effected at 30, 120, 180, 240 or 360 minutes postinjection, data not shown). The number of intact cells was calculated at 6 hours postinjection. […] The growth of metastases in the liver was evaluated as stated in the corresponding section of the description, and in this case the mice were treated daily (×10 days) with t-PTER and/or QUER (20 mg/kg of body weight) administered i.v. (the data are mean values±SD corresponding to 25 mice per group). […]

[1] = Extravascular (tissue) levels after intravenous administration in mice; assay type: in vivo; parameters: unit not given here; conditions: 20 mg/kg i.v.
Description: For the pharmacokinetic studies and for the daily treatment, the mice were administered i.v. (via the jugular vein, where a permanent catheter had previously been fixed by surgical methods; i.v. administration was carried out slowly for 1 minute), and orally (via stomach tube), 20 mg/kg of t-PTER (dissolved in ethanol 0.5 ml/kg of animal weight) or QUER (dissolved in dimethylsulfoxide:saline, 1:0.5 0.15 ml/kg of weight). In general, the compositions based on a combination of PTER and QUER can contain, as excipients, those stated previously or any others that are pharmaceutically acceptable. The presentation of said compositions can be, non-limitatively, in the form of solids such as tablets, capsules, pellets, pills, etc. and liquid presentations such as drops, syrups, injectables, etc. Moreover, the active principles (PTER and QUER) of the composition can be in their uncombined forms or in the form of pharmaceutically acceptable salts, including esters. The t-PTER was synthesized in our laboratory following standardized reactions of Wittig and Heck (www.orgsyn.org), whereas the QUER was obtained from Sigma Chemical Co. (San Luis, Mo., USA). The ^3H-t-PTER (2.2 Ci/mmol), labeled in the ortho and para positions of the benzene rings, was prepared in our laboratory according to a method similar to that used for the deuteration of phenols (18). ^14C-QUER (50 mCi/mmol), labeled in position 4 of the carbon ring, was obtained from the NCI Radiochemical Carcinogen Repository of Chemsyn Laboratories (Kansas City, Mo., USA). The radioactivity was measured using a Varisette 2700 TR analyzer from Packard. Blood was collected by means of the catheter in 1-ml syringes that contained heparin sodium (0.05 ml of a 5% solution in […]). The plasma and the erythrocytes were separated as described previously (19).
To supplement the pharmacokinetics in plasma/blood, we also evaluated the bioavailability of PTER and QUER in extravascular tissues. […] Therefore, it appears that neither of the polyphenols is subject to extravascular accumulation and that their presence in various tissues (Table 2) is parallel in time to their bioavailability in the bloodstream (FIG. 1).
The animals were treated with t-PTER or QUER (20 mg/kg, containing 5 μCi of ^3H-t-PTER or 2 μCi ^14C-QUER). A group of 4-5 mice was sacrificed at each time point. Not detectable=n.d. *P<0.01 comparing the data obtained at 10-60 minutes with the data found 5 minutes after administration of the polyphenol.

Bcl-2 [2] = test: Intracellular levels of Bcl-2 in B16M-F10 cells (enzyme immunoassay); assay type: cell-based, mouse; conditions: t-PTER 40 μM, QUER 20 μM, 60 minutes at 6, 30 and 54 hours, none 35 ± 5
Excerpt: (§1) The Tet-off gene expression system (Clontech, Palo Alto, Calif., USA) was used for inserting the mouse bcl-2 gene and transfecting the B16M-F10 cells, as described previously (26) and following the manufacturer's instructions. The protein Bcl-2 was quantified in the soluble cytosolic fraction by enzyme immunoassay (27) using a test based on a monoclonal antibody from Sigma (San Luis, Mo., USA) (a Bcl-2 unit was defined as the amount of Bcl-2 protein in 1000 non-transfected B16M-F10 cells).
(§2) This methodology makes it possible for the effect of PTER and QUER to be studied in vivo. For this purpose, mice were inoculated with B16M-F10 control cells or B16M-F10/Tet-Bcl-2 which overexpressed Bcl-2. […] The number of adhering cells shown in the table was calculated at 60 minutes postinjection (no significant differences were found when the measurements were effected at 30, 120, 180, 240 or 360 minutes postinjection, data not shown). The number of intact cells was calculated at 6 hours postinjection. […] The growth of metastases in the liver was evaluated as stated in the corresponding section of the description, and in this case the mice were treated daily (×10 days) with t-PTER and/or QUER (20 mg/kg of body weight) administered i.v. (the data are mean values±SD corresponding to 25 mice per group). […]

B16M-F10 cells = test: Levels of free polyphenols in the incubation medium of B16M-F10 cultures; assay type: in vitro ADME; conditions: throughout the culture time
Bcl-2 [3] = test: Intracellular levels of Bcl-2 in B16M-F10/Tet-Bcl-2 cells (enzyme immunoassay); assay type: cell-based, mouse; conditions: same exposure, none 160 ± 25
Excerpt: as §1, §2

Compound | Survival of the carrier (B16M-F10) [days] | effect on survival of the carrier host (B16M-F10; B16M-F10 control cells, daily i.v. administration) | Extravascular level, Brain ([1]; 5 min) | Extravascular level, Kidney ([1]; 5 min) | Extravascular level, Liver ([1]; 5 min) | Extravascular level, Lung ([1]; 5 min) | Extravascular level, Brain ([1]; 10 min) | Extravascular level, Kidney ([1]; 10 min) | Extravascular level, Liver ([1]; 10 min) | Extravascular level, Lung ([1]; 10 min) | Extravascular level, Liver ([1]; 30 min) | Extravascular level, Lung ([1]; 30 min) | Intracellular levels of Bcl-2 before inoculation (Bcl-2 [2]) | total levels of free polyphenols in the incubation medium (metabolism by cancer cells) (B16M-F10 cells) | Intracellular levels of Bcl-2 before inoculation (Bcl-2 [3]) | Extravascular level, Kidney ([1]; 30 min) | Extravascular level, Kidney ([1]; 60 min) | Extravascular level, Lung ([1]; 60 min)
O=c1c(O)c(-c2ccc(O)c(O)c2)oc2cc(O)cc(O)c12 [QUER, quercetin] | 15 ± 1 | neither of these compounds significantly increased the survival | 4 ± 1 | 1 ± 0.2 | 9 ± 3 | 15 ± 3 | 2 ± 0.4* | 1 ± 0.5 | 3 ± 1*^ | 8 ± 2* | 1 ± 0.2* | 2 ± 0.6* | 9 ± 3** units/mg protein | remained unchanged | 125 ± 13*^++ units/mg protein | – | – | –
COc1cc(/C=C/c2ccc(O)cc2)cc(OC)c1 [PTER, pterostilbene] | 15 ± 2 | – | 5 ± 1 | 3 ± 1 | 14 ± 4 | 36 ± 6 | 2 ± 0.5* | 3 ± 0.3 | 7 ± 1* | 15 ± 3* | 3 ± 0.5* | 6 ± 1* | 21 ± 4** units/mg protein | remained unchanged | 151 ± 18^++ units/mg protein | 2 ± 0.4* | 1 ± 0.3* | 2 ± 1*
